Measurements taken from patent US8962641B2, “Pyrimidine-substituted pyrrolidine derivatives, pharmaceutical compositions and uses thereof” (Boehringer Ingelheim International GmbH, priority 2013, dated 2015).

target: human ACC2 (Homo sapiens (Human), UniProt O00763); experiment: ACC2 assay (spectrophotometric 384 well assay, NADH-linked kinetic method); type: biochemical; conditions: hACC2 construct lacking 128 N-terminal amino acids; coupled lactate dehydrogenase/pyruvate kinase reaction, 340 nm, 25° C.
Sequence (O00763 129-2458): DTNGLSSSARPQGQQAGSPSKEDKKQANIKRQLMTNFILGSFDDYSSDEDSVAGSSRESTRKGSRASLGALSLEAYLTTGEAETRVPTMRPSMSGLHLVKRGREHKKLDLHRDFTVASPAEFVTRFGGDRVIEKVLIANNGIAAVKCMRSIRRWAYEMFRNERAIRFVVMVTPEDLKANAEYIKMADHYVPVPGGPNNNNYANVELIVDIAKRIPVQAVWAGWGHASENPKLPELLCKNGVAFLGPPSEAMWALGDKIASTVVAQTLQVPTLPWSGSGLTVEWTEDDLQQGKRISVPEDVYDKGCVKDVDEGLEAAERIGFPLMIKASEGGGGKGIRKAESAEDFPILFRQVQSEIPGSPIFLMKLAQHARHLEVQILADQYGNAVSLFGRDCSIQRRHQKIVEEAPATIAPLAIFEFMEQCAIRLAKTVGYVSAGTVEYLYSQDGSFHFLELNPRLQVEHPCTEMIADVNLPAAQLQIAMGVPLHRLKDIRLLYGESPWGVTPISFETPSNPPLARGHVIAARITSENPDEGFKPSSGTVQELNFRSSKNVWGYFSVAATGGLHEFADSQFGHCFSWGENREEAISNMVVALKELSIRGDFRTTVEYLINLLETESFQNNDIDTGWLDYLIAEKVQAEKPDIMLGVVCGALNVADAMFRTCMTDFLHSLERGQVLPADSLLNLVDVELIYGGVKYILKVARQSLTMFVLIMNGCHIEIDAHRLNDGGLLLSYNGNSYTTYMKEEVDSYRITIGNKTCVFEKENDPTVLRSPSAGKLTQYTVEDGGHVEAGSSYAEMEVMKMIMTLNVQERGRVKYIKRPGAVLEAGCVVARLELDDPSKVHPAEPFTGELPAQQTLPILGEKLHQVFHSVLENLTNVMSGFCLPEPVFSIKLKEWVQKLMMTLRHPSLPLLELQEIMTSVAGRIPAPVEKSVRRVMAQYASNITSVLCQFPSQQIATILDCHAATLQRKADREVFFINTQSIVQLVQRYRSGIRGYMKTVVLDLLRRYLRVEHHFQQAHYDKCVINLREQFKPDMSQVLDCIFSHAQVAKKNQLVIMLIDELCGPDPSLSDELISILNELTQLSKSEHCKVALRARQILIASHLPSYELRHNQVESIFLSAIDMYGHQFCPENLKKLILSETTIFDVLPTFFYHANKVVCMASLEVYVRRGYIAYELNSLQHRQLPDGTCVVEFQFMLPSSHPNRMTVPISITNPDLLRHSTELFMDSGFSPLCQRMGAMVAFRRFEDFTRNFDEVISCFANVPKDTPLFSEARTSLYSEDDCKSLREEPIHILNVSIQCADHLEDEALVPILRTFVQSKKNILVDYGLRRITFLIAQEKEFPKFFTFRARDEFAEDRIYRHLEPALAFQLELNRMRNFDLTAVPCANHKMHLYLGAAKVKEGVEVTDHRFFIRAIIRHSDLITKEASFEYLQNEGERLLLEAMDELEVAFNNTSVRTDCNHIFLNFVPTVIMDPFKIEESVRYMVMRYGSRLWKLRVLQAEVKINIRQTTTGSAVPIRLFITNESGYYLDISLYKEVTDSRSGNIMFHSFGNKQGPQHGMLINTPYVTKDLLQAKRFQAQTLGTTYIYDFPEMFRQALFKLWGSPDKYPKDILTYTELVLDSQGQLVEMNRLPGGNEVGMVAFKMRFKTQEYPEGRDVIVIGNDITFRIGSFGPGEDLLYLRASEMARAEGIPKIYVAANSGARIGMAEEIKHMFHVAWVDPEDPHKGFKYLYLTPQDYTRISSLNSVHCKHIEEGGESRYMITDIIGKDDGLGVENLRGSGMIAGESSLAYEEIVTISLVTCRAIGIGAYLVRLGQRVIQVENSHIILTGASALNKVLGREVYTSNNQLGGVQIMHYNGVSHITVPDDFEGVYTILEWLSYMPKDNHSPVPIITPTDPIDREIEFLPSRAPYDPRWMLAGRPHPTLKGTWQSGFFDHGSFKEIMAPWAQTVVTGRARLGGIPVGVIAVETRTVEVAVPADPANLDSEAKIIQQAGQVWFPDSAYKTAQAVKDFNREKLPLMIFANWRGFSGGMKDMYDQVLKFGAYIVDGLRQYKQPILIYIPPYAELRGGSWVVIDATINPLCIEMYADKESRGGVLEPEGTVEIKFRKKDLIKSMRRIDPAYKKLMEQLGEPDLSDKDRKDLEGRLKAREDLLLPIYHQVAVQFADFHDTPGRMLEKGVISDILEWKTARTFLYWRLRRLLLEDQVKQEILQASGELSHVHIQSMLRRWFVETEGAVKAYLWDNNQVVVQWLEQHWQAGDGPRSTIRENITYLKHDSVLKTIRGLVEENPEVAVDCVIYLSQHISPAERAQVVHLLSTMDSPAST
How it was run: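 Baculovirus/insect-cell human ACC2, anion-exchange purified; ADP formation coupled to pyruvate kinase/lactate dehydrogenase, NADH loss followed at 340 nm, 25° C, 15 min. Final 200 μM NADH and acetyl-CoA, 500 uM ATP; vehicle and no-acetyl-CoA wells set 100% and 0%.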

Row | Compound | IC50 [nM]
1 | COCCN(C)c1ncc(Cl)c(N2CC[C@@H](Oc3ccc([C@H](C)NC(C)=O)cc3)C2)n1 [Example 8.130] | 79
2 | CC(=O)N[C@@H](C)c1ccc(O[C@@H]2CCN(c3nc(N(C)CCC#N)ncc3Cl)C2)cc1 [Example 8.131] | 461
3 | CC(=O)N[C@@H](C)c1ccc(O[C@@H]2CCN(c3ncnc(N(C)C4CC4)c3F)C2)cc1 [Example 8.133] | 299
4 | CC(=O)N[C@@H](C)c1ccc(O[C@@H]2CCN(c3nc(N(C)CC(F)F)ncc3Cl)C2)cc1 [Example 8.136] | 70
5 | CC(=O)N[C@@H](C)c1ccc(O[C@@H]2CCN(c3ncnc(N(C)CCC#N)c3F)C2)cc1 [Example 8.137] | 672
6 | CC(=O)N[C@@H](C)c1ccc(O[C@@H]2CCN(c3ncnc(N4CCC(C)C4)c3F)C2)cc1 (some centres unmarked) [Example 8.139] | 49
7 | CC(=O)N[C@@H](C)c1ccc(O[C@@H]2CCN(c3nc(N(C)C(C)C)ncc3Cl)C2)cc1 [Example 8.141] | 148
8 | CC(=O)N[C@@H](C)c1ccc(O[C@@H]2CCN(c3ncnc(N4CCOCC4)c3F)C2)cc1 [Example 8.143] | 429
9 | CCCN(C)c1ncnc(N2CC[C@@H](Oc3ccc([C@H](C)NC(C)=O)cc3)C2)c1F [Example 8.144] | 104
10 | CC(=O)N[C@@H](C)c1ccc(O[C@@H]2CCN(c3nc(N(C)C4CC4)ncc3Cl)C2)cc1 [Example 8.145] | 93
11 | CC(=O)N[C@@H](C)c1ccc(O[C@@H]2CCN(c3nc(N4C[C@@H]5C[C@H]4CO5)ncc3Cl)C2)cc1 [Example 8.146] | 984
12 | CC(=O)N[C@@H](C)c1ccc(O[C@@H]2CCN(c3ncnc(N4C[C@@H]5C[C@H]4CO5)c3F)C2)cc1 [Example 8.147] | 2320
13 | CC(=O)N[C@@H](C)c1ccc(O[C@@H]2CCN(c3ncnc(N(C)C[C@H]4CCCO4)c3F)C2)cc1 [Example 8.148] | 198
14 | COC1CCN(c2ncc(Cl)c(N3CC[C@@H](Oc4ccc([C@H](C)NC(C)=O)cc4)C3)n2)CC1 [Example 8.153] | 679
15 | CC(=O)N[C@@H](C)c1ccc(O[C@@H]2CCN(c3nc(N4CCCC4C)ncc3Cl)C2)cc1 (some centres unmarked) [Example 8.154] | 103
16 | CC(=O)N[C@@H](C)c1ccc(O[C@@H]2CCN(c3nc(N4C[C@@H]5C[C@H]4CO5)ncc3F)C2)cc1 [Example 8.155] | 613
17 | CC(=O)N[C@@H](C)c1ccc(O[C@@H]2CCN(c3nc(N(C)C4CCOCC4)ncc3F)C2)cc1 [Example 8.157] | 105
18 | CC(=O)N[C@@H](C)c1ccc(O[C@@H]2CCN(c3nc(N(C)CCC(F)(F)F)ncc3F)C2)cc1 [Example 8.158] | 56

Row | Compound | IC50 [nM]
19 | CC(=O)N[C@@H](C)c1ccc(O[C@@H]2CCN(c3ncnc(N4CC[C@@H](F)C4)c3F)C2)cc1 [Example 8.162] | 476
20 | CC(=O)N[C@@H](C)c1ccc(O[C@@H]2CCN(c3nc(N(C)CC(C)C)ncc3F)C2)cc1 [Example 8.164] | 102
21 | CC(=O)N[C@@H](C)c1ccc(O[C@@H]2CCN(c3nc(N(C)C4CCCOC4)ncc3F)C2)cc1 (some centres unmarked) [Example 8.166] | 105
22 | CC(=O)N[C@@H](C)c1ccc(O[C@@H]2CCN(c3ncnc(N4CC5COCC5C4)c3F)C2)cc1 (some centres unmarked) [Example 8.172] | 675
23 | CC(=O)N[C@@H](C)c1ccc(O[C@@H]2CCN(c3nc(N4[C@H](C)CCC[C@H]4C)ncc3Cl)C2)cc1 [Example 8.173] | 155
24 | CC(=O)N[C@@H](C)c1ccc(O[C@@H]2CCN(c3nc(N4CCOC(C(F)(F)F)C4)ncc3Cl)C2)cc1 (some centres unmarked) [Example 8.174] | 170
25 | COC[C@H](C)N(C)c1ncnc(N2CC[C@@H](Oc3ccc([C@H](C)NC(C)=O)cc3)C2)c1F [Example 8.177] | 476
26 | CCN(CCO)c1ncc(Cl)c(N2CC[C@@H](Oc3ccc([C@H](C)NC(C)=O)cc3)C2)n1 [Example 8.178] | 389
27 | CC(=O)N[C@@H](C)c1ccc(O[C@@H]2CCN(c3nc(N4CC[C@@H](F)C4)ncc3F)C2)cc1 [Example 8.181] | 531
28 | CC(=O)N[C@@H](C)c1ccc(O[C@@H]2CCN(c3nc(N4CC[C@H](F)C4)ncc3F)C2)cc1 [Example 8.184] | 220
29 | CC(=O)N[C@@H](C)c1ccc(O[C@@H]2CCN(c3nc(N4CCOC(C)C4)ncc3Cl)C2)cc1 (some centres unmarked) [Example 8.186] | 204
30 | CC(=O)N[C@@H](C)c1ccc(O[C@@H]2CCN(c3nc(N4CCC(F)(F)CC4)ncc3Cl)C2)cc1 [Example 8.187] | 220
31 | COC[C@@H]1CCN(c2ncc(Cl)c(N3CC[C@@H](Oc4ccc([C@H](C)NC(C)=O)cc4)C3)n2)C1 [Example 8.188] | 118
32 | CC(=O)N[C@@H](C)c1ccc(O[C@@H]2CCN(c3nc(N4CCCC(F)(F)C4)ncc3Cl)C2)cc1 [Example 8.189] | 319
33 | CC(=O)N[C@@H](C)c1ccc(O[C@@H]2CCN(c3nc(N(C)CCOC(C)(C)C)ncc3Cl)C2)cc1 [Example 8.192] | 640
34 | COC1CCN(c2ncc(F)c(N3CC[C@@H](Oc4ccc([C@H](C)NC(C)=O)cc4)C3)n2)CC1 [Example 8.193] | 229
35 | COC[C@H]1CCCN1c1ncnc(N2CC[C@@H](Oc3ccc([C@H](C)NC(C)=O)cc3)C2)c1F [Example 8.197] | 733
36 | CC(=O)N[C@@H](C)c1ccc(O[C@@H]2CCN(c3ncnc(N4CCOC(C(F)(F)F)C4)c3F)C2)cc1 (some centres unmarked) [Example 8.198] | 549

Next, values leading:

Row | IC50 [nM] | Compound
37 | 107 | CC(=O)N[C@@H](C)c1ccc(O[C@@H]2CCN(c3nc(N4CCCCC4)ncc3Cl)C2)cc1 [Example 8.127]
38 | 278 | CC(=O)N[C@@H](C)c1ccc(O[C@@H]2CCN(c3nc(N4CCC(F)(F)C4)ncc3Cl)C2)cc1 [Example 8.128]
39 | 67 | CC(=O)N[C@@H](C)c1ccc(O[C@@H]2CCN(c3ncnc(N4CCCC4)c3F)C2)cc1 [Example 8.129]
40 | 206 | CC(=O)N[C@@H](C)c1ccc(O[C@@H]2CCN(c3ncnc(N(C)CC(F)F)c3F)C2)cc1 [Example 8.132]
41 | 208 | COCCN(C)c1ncnc(N2CC[C@@H](Oc3ccc([C@H](C)NC(C)=O)cc3)C2)c1F [Example 8.134]
42 | 131 | CC(=O)N[C@@H](C)c1ccc(O[C@@H]2CCN(c3ncnc(N(C)C(C)C)c3F)C2)cc1 [Example 8.135]
43 | 105 | CC(=O)N[C@@H](C)c1ccc(O[C@@H]2CCN(c3ncnc(N4CCCCC4)c3F)C2)cc1 [Example 8.138]
44 | 109 | CC(=O)N[C@@H](C)c1ccc(O[C@@H]2CCN(c3ncnc(N4CCC(F)(F)C4)c3F)C2)cc1 [Example 8.140]
45 | 138 | CC(=O)N[C@@H](C)c1ccc(O[C@@H]2CCN(c3nc(N4CCC(C)C4)ncc3Cl)C2)cc1 (some centres unmarked) [Example 8.142]
46 | 387 | CCN(CCC#N)c1ncc(Cl)c(N2CC[C@@H](Oc3ccc([C@H](C)NC(C)=O)cc3)C2)n1 [Example 8.149]
47 | 159 | COC[C@@H](C)N(C)c1ncc(F)c(N2CC[C@@H](Oc3ccc([C@H](C)NC(C)=O)cc3)C2)n1 [Example 8.150]
48 | 215 | CC(=O)N[C@@H](C)c1ccc(O[C@@H]2CCN(c3nc(N4CCCC4(C)C)ncc3Cl)C2)cc1 [Example 8.152]
49 | 153 | CC(=O)N[C@@H](C)c1ccc(O[C@@H]2CCN(c3nc(N4CCC(C)(O)C4)ncc3F)C2)cc1 (some centres unmarked) [Example 8.156]
50 | 151 | CC(=O)N[C@@H](C)c1ccc(O[C@@H]2CCN(c3ncnc(N(C)CCC(F)(F)F)c3F)C2)cc1 [Example 8.159]
51 | 384 | CC(=O)N[C@@H](C)c1ccc(O[C@@H]2CCN(c3ncnc(N4CCCC(F)(F)C4)c3F)C2)cc1 [Example 8.161]
52 | 469 | CC(=O)N[C@@H](C)c1ccc(O[C@@H]2CCN(c3cc(N4CCOCC4C)ncn3)C2)cc1 (some centres unmarked) [Example 8.163]

Row | IC50 [nM] | Compound
53 | 75 | CC(=O)N[C@@H](C)c1ccc(O[C@@H]2CCN(c3nc(N(C)C[C@@H]4CCCO4)ncc3F)C2)cc1 [Example 8.165]
54 | 101 | COCCCN(C)c1ncc(F)c(N2CC[C@@H](Oc3ccc([C@H](C)NC(C)=O)cc3)C2)n1 [Example 8.167]
55 | 173 | COCCCN(C)c1ncc(Cl)c(N2CC[C@@H](Oc3ccc([C@H](C)NC(C)=O)cc3)C2)n1 [Example 8.168]
56 | 175 | CC(=O)N[C@@H](C)c1ccc(O[C@@H]2CCN(c3ccnc(N(C)CC(C)C)n3)C2)cc1 [Example 8.171]
57 | 1380 | CC(=O)N[C@@H](C)c1ccc(O[C@@H]2CCN(c3nc(N4CCc5nocc5C4)ncc3Cl)C2)cc1 [Example 8.175]
58 | 683 | CC(=O)N[C@@H](C)c1ccc(O[C@@H]2CCN(c3ncnc(N4CCOC(C)(C)C4)c3F)C2)cc1 [Example 8.176]
59 | 358 | CC(=O)N[C@@H](C)c1ccc(O[C@@H]2CCN(c3ncnc(N4CCOC(C)C4)c3F)C2)cc1 (some centres unmarked) [Example 8.179]
60 | 278 | CC(=O)N[C@@H](C)c1ccc(O[C@@H]2CCN(c3ccnc(N(C)C4CCCOC4)n3)C2)cc1 (some centres unmarked) [Example 8.180]
61 | 1120 | COC[C@H]1CCCN1c1ncc(F)c(N2CC[C@@H](Oc3ccc([C@H](C)NC(C)=O)cc3)C2)n1 [Example 8.182]
62 | 807 | CC(=O)N[C@@H](C)c1ccc(O[C@@H]2CCN(c3nc(N4CCC(CO)C4)ncc3F)C2)cc1 (some centres unmarked) [Example 8.183]
63 | 753 | CC(=O)N[C@@H](C)c1ccc(O[C@@H]2CCN(c3nc(N(C)CC(C)O)ncc3Cl)C2)cc1 (some centres unmarked) [Example 8.185]
64 | 41 | CC(=O)N[C@@H](C)c1ccc(O[C@@H]2CCN(c3nc(N(C)C4CCC4)ncc3F)C2)cc1 [Example 8.190]
65 | 222 | CC(=O)N[C@@H](C)c1ccc(O[C@@H]2CCN(c3nc(N4CCC(C)(C)C4)ncc3Cl)C2)cc1 [Example 8.191]
66 | 128 | CC(=O)N[C@@H](C)c1ccc(O[C@@H]2CCN(c3nc(N4CCC(C)(C)C4)ncc3F)C2)cc1 [Example 8.194]
67 | 393 | CC(=O)N[C@@H](C)c1ccc(O[C@@H]2CCN(c3ccnc(N(C)C4CCOCC4)n3)C2)cc1 [Example 8.195]
68 | 277 | CC(=O)N[C@@H](C)c1ccc(O[C@@H]2CCN(c3ccnc(N4CC=CC4)n3)C2)cc1 [Example 8.196]
